The values that follow come from ChEMBL document CHEMBL1250471, “Synthesis and antimycobacterial activity of new quinoxaline-2-carboxamide 1,4-di-N-oxide derivatives” (2010).

The structures appear in SMILES notation. ≈ marks a conversion by molar mass, not a printed value.

As usually defined, the IC90 is the point of the concentration-response curve where the effect stands at 90%.

Test [1] relates to Mycobacterium tuberculosis. Kind of test: Antimycobacterial activity against Mycobacterium tuberculosis H37Rv ATCC 27294 microplate alamar blue assay. The format is functional. (Resazurin is reduced to fluorescent resorufin, in cell work by metabolically active cells.)
A short description of test [2]: Selectivity index, ratio of CC50 for african green monkey Vero cells to MIC for Mycobacterium tuberculosis H37Rv ATCC 27294. The format is functional.

Regarding `Cc1c(C(=O)NCc2ccc(C(F)(F)F)cc2)[n+]([O-])c2cc(Cl)c(Cl)cc2[n+]1[O-]`, the IC90 in test [1] worked out at 6.58 µg/mL (≈ 14.7 µM). Besides, the “Selectivity Index” value in test [2] is above 6.08.

Turning to `Cc1c(C(=O)NCc2ccc(Cl)cc2)[n+]([O-])c2ccccc2[n+]1[O-]`, the IC90 in test [1] came out at 11 µg/mL (≈ 32.1 µM). Same read-out and setting: the figure for `Cc1c(C(=O)NCc2ccc(Cl)cc2)[n+]([O-])c2cc(Cl)ccc2[n+]1[O-]` is 29.7 µg/mL (≈ 78.5 µM); for `Cc1ccc2c(c1)[n+]([O-])c(C(=O)NCc1ccc(Cl)cc1)c(C)[n+]2[O-]` it is 14.6 µg/mL (≈ 40.7 µM); for `Cc1c(C(=O)NCc2ccc(Cl)cc2)[n+]([O-])c2cc(Cl)c(Cl)cc2[n+]1[O-]` it is 51.9 µg/mL (≈ 126 µM). Same read-out and setting: the figure for `Cc1c(C(=O)NCc2ccc(Br)cc2)[n+]([O-])c2ccccc2[n+]1[O-]` is 15.6 µg/mL (≈ 40.2 µM). As for `Cc1c(C(=O)NCc2ccc(Br)cc2)[n+]([O-])c2cc(Cl)ccc2[n+]1[O-]`, the IC90 in test [1] turned out to be 5.33 µg/mL (≈ 12.6 µM). In test [2], the “Selectivity Index” value is reported as above 7.5. The compound `Cc1ccc2c(c1)[n+]([O-])c(C(=O)NCc1ccc(Br)cc1)c(C)[n+]2[O-]` returned an IC90 in test [1] of 78.2 µg/mL (≈ 194 µM).

In the case of `Cc1c(C(=O)NCc2ccc(Br)cc2)[n+]([O-])c2cc(Cl)c(Cl)cc2[n+]1[O-]`, the 90% effect level in test [1] (IC90) was put at 6.92 µg/mL (≈ 15.1 µM). For the same compound, the “Selectivity Index” value in test [2] was above 5.78. On the same counts, the results for `Cc1ccc(CNC(=O)c2c(C)[n+]([O-])c3ccccc3[n+]2[O-])cc1` are 6.76 µg/mL (≈ 20.9 µM) and above 5.92. As for `O=C(Nc1ccccc1)c1c(-c2ccccc2)[n+]([O-])c2ccccc2[n+]1[O-]`, in test [1], the 90% effect concentration (IC90) is 27 µg/mL (≈ 75.5 µM). In turn, `O=C(Nc1ccccc1)c1c(-c2ccccc2)[n+]([O-])c2ccc(Cl)cc2[n+]1[O-]` displayed a 90% effect concentration (IC90) in test [1] of 6.71 µg/mL (≈ 17.1 µM). For the same compound, the “Selectivity Index” value in test [2] is reported as 1.34.

In the case of `Cc1ccc(CNC(=O)c2c(C)[n+]([O-])c3ccc(Cl)cc3[n+]2[O-])cc1`, the IC90 in test [1] was determined as 32 µg/mL (≈ 89.5 µM). The compound `Cc1ccc(CNC(=O)c2c(C)[n+]([O-])c3ccc(C)cc3[n+]2[O-])cc1` yielded an IC90 in test [1] of 99.9 µg/mL (≈ 296 µM).

For the compound `O=C(Nc1ccccc1)c1c(-c2ccccc2)[n+]([O-])c2ccc(F)cc2[n+]1[O-]`, the IC90 in test [1] was determined as 17.9 µg/mL (≈ 47.8 µM). Still for that read-out and setting: the figure for `O=C(Nc1ccccc1)c1c(-c2ccccc2)[n+]([O-])c2ccc(C(F)(F)F)cc2[n+]1[O-]` is 19.1 µg/mL (≈ 44.9 µM); for `Cc1ccc(CNC(=O)c2c(C)[n+]([O-])c3cc(Cl)c(Cl)cc3[n+]2[O-])cc1` it is above 100 µg/mL. For the compound `Cc1c(C(=O)NCC(c2ccccc2)c2ccccc2)[n+]([O-])c2ccccc2[n+]1[O-]`, the 90% effect level in test [1] (IC90) was put at 16 µg/mL (≈ 40 µM).

In turn, `Cc1ccc2c(c1)[n+]([O-])c(C(=O)Nc1ccccc1)c(-c1ccccc1)[n+]2[O-]` returned a 90% effect concentration (IC90) in test [1] of 24.6 µg/mL (≈ 66.4 µM). Same read-out and setting: the figure for `COc1ccc2c(c1)[n+]([O-])c(C(=O)Nc1ccccc1)c(-c1ccccc1)[n+]2[O-]` is 26.8 µg/mL (≈ 69.3 µM); for `Cc1c(C(=O)NCC(c2ccccc2)c2ccccc2)[n+]([O-])c2cc(Cl)ccc2[n+]1[O-]` it is 60.4 µg/mL (≈ 139 µM).

Take `Cc1ccc2c(c1)[n+]([O-])c(C(=O)NCC(c1ccccc1)c1ccccc1)c(C)[n+]2[O-]`: the 90% effect level in test [1] (IC90) was put at 16.8 µg/mL (≈ 40.6 µM). On to `O=C(Nc1ccccc1)c1c(-c2ccccc2)[n+]([O-])c2cc(Cl)c(Cl)cc2[n+]1[O-]`, for which it took 6.63 µg/mL (≈ 15.6 µM) to reach the 90% level in test [1] (IC90). The “Selectivity Index” value in test [2] worked out at 0.84. The like results for `O=C(NCc1ccccc1)c1c(-c2ccccc2)[n+]([O-])c2ccccc2[n+]1[O-]` were, in that order, 6.71 µg/mL (≈ 18.1 µM) and above 5.96. For the compound `Cc1c(C(=O)NCC(c2ccccc2)c2ccccc2)[n+]([O-])c2cc(Cl)c(Cl)cc2[n+]1[O-]`, in test [1], the IC90 was determined as 66.5 µg/mL (≈ 142 µM). In turn, `Cc1c(C(=O)NCc2ccc3c(c2)OCO3)[n+]([O-])c2ccccc2[n+]1[O-]` showed a concentration for an effect of 90% (IC90) in test [1] of 22.8 µg/mL (≈ 64.4 µM). With `O=C(NCc1ccccc1)c1c(-c2ccccc2)[n+]([O-])c2ccc(Cl)cc2[n+]1[O-]`, it took 3.39 µg/mL (≈ 8.35 µM) to reach the 90% level in test [1] (IC90). Also, the “Selectivity Index” value in test [2] was above 11.79.

For the compound `O=C(NCc1ccccc1)c1c(-c2ccccc2)[n+]([O-])c2ccc(F)cc2[n+]1[O-]`, it took 3.86 µg/mL (≈ 9.91 µM) to reach the 90% level in test [1] (IC90). In addition, in test [2], the “Selectivity Index” value is given as 4.62. On the same counts, the results for `Cc1c(C(=O)NCc2ccc3c(c2)OCO3)[n+]([O-])c2cc(Cl)ccc2[n+]1[O-]` are 6.99 µg/mL (≈ 18 µM) and above 5.72.

Compound `Cc1ccc2c(c1)[n+]([O-])c(C(=O)NCc1ccc3c(c1)OCO3)c(C)[n+]2[O-]` registered an IC90 in test [1] of 13.2 µg/mL (≈ 36 µM).

Consider `O=C(NCc1ccccc1)c1c(-c2ccccc2)[n+]([O-])c2ccc(C(F)(F)F)cc2[n+]1[O-]`, for which the IC90 in test [1] was above 100 µg/mL. The same measure, in the same setting: for `Cc1ccc2c(c1)[n+]([O-])c(C(=O)NCc1ccccc1)c(-c1ccccc1)[n+]2[O-]` the value was 13.9 µg/mL (≈ 36.1 µM); for `Cc1c(C(=O)NCc2ccc3c(c2)OCO3)[n+]([O-])c2cc(Cl)c(Cl)cc2[n+]1[O-]`, 34.9 µg/mL (≈ 82.7 µM).

In turn, `COc1ccc2c(c1)[n+]([O-])c(C(=O)NCc1ccccc1)c(-c1ccccc1)[n+]2[O-]` displayed an IC90 in test [1] of 14.6 µg/mL (≈ 36.3 µM). The same measure, in the same setting: for `O=C(NCc1ccccc1)c1c(-c2ccccc2)[n+]([O-])c2cc(Cl)c(Cl)cc2[n+]1[O-]` the value was 25.4 µg/mL (≈ 57.8 µM); for `O=C(NCCc1ccccc1)c1c(-c2ccccc2)[n+]([O-])c2ccccc2[n+]1[O-]`, 18.6 µg/mL (≈ 48.3 µM). On the same count and under the same terms, for `O=C(NCCc1ccccc1)c1c(-c2ccccc2)[n+]([O-])c2ccc(Cl)cc2[n+]1[O-]` the value was 15.4 µg/mL (≈ 36.7 µM); for `Cc1c(C(=O)NCc2ccc(C(F)(F)F)cc2)[n+]([O-])c2ccccc2[n+]1[O-]`, 16.8 µg/mL (≈ 44.6 µM). In test [1], `Cc1c(C(=O)NCc2ccc(C(F)(F)F)cc2)[n+]([O-])c2cc(Cl)ccc2[n+]1[O-]` displayed an IC90 of 6.13 µg/mL (≈ 14.9 µM). In addition, the “Selectivity Index” value in test [2] is recorded as above 6.52. On the same counts, the results for `Cc1c(C(=O)NCc2ccc(C(F)(F)F)cc2)[n+]([O-])c2cc(F)ccc2[n+]1[O-]` are 4.48 µg/mL (≈ 11.3 µM) and above 8.94. In turn, `Cc1c(C(=O)NCc2ccc(C(F)(F)F)cc2)[n+]([O-])c2cc(C(F)(F)F)ccc2[n+]1[O-]` gave an IC90 in test [1] of 3.38 µg/mL (≈ 7.59 µM). In addition, in test [2], the “Selectivity Index” value is above 11.82. `Cc1ccc2c(c1)[n+]([O-])c(C(=O)NCc1ccc(C(F)(F)F)cc1)c(C)[n+]2[O-]`: the IC90 in test [1] is above 100 µg/mL. On the same count and under the same terms, the figure for `COc1ccc2c(c1)[n+]([O-])c(C(=O)NCc1ccc(C(F)(F)F)cc1)c(C)[n+]2[O-]` is above 100 µg/mL.

Compound `CO[C@H]1/C=C/O[C@@]2(C)Oc3c(C)c(O)c4c(O)c(c(/C=N/N5CCN(C)CC5)c(O)c4c3C2=O)NC(=O)/C(C)=C\C=C\[C@H](C)[C@H](O)[C@@H](C)[C@@H](O)[C@@H](C)[C@H](OC(C)=O)[C@@H]1C` [RIFAMPIN] showed an IC90 in test [1] of 0.015 µg/mL (≈ 0.0182 µM). Moreover, the “Selectivity Index” value in test [2] is above 800.
